Blank lines part the entries; values can stand above or below the molecule they belong to.
Experiments:
[1] = tested on: cisplatin-induced emesis; assay: cisplatin-induced emesis in the ferret; assay type: in vivo; conditions: for anti-emetic activity: inhibition of cisplatin-induced emesis: cisplatin 200 mg/m^2 i.p., compound 3 mg/kg i.p. at first retch
Description: In this model of emesis the onset of retching and vomiting occurs approximately 1 hour after the administration of cisplatin (200 mg/m^2 i.p.). At the first retch in response to cisplatin, the test compound was administered (e.g. i.p., p.o., i.v., s.c., i.c.v.) and its effect on emesis determined by comparison with appropriate controls (e.g. water).

[2] = tested on: emesis induced by cyclophosphamide; assay: cyclophosphamide-induced emesis, test compound given simultaneously with the emetogen; assay type: in vivo, ferret; conditions: compound 3 mg/kg i.p. simultaneously with cyclophosphamide 200 mg/kg i.p.
[3] = tested on: emesis induced by morphine; assay: morphine-induced emesis, test compound given simultaneously with the emetogen; assay type: in vivo, ferret; conditions: compound 3 mg/kg i.p. simultaneously with morphine 0.5 mg/kg s.c.
[4] = tested on: emesis induced by ipecacuanha; assay: ipecacuanha-induced emesis, test compound given simultaneously with the emetogen; assay type: in vivo, ferret; conditions: compound 3 mg/kg i.p. simultaneously with ipecacuanha 2 mg/kg p.o.
[5] = tested on: emesis induced by copper sulphate; assay: copper sulphate-induced emesis, test compound given simultaneously with the emetogen; assay type: in vivo, ferret; conditions: compound 3 mg/kg i.p. simultaneously with copper sulphate 40 mg/kg i.p.
[6] = biological target: NK1 receptor (Homo sapiens, UniProt P25103); assay: NK1 receptor antagonist activity (enantiomer comparison); conditions: relative to the (2S,3S) enantiomer
NK1 receptor, sequence (P25103 whole entry, species assumed): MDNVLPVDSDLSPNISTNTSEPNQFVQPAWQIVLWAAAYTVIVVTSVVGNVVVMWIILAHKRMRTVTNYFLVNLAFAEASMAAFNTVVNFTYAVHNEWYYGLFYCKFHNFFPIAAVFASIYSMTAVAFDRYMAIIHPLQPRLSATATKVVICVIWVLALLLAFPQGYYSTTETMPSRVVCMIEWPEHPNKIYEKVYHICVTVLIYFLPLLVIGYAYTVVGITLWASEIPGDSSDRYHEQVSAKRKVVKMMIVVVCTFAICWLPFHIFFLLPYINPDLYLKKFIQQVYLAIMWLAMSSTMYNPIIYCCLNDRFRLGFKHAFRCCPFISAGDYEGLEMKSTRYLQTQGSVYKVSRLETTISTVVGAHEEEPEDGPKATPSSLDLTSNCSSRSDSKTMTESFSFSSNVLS

Compound: COc1ccccc1CN[C@H]1CCCN[C@H]1c1ccccc1 (relative stereo) [(2S,3S) enantiomer, cis-3-(2-methoxybenzylamino)-2-phenyl piperidine]
anti-emetic activity: inhibition of cisplatin-induced emesis ([1]; 3 mg/kg): inhibited

Compound: COc1ccccc1CNC1C2CCN(C2)C1C(c1ccccc1)c1ccccc1 (stereo not drawn) [Example 1, (exo,exo)-2-(Diphenylmethyl)-N-[(2-methoxyphenyl)methyl]-1-azabicyclo[2.2.1]heptan-3-amine]
inhibition of cisplatin-induced emesis ([1]; compound 5 mg/kg i.p.): inhibited

Compound: COc1ccccc1CN[C@H]1CCCN[C@H]1c1ccccc1 (racemic) [(±) cis-3-(2-methoxybenzylamino)-2-phenyl piperidine]
anti-emetic activity: inhibition of cisplatin-induced emesis [1]: exhibited anti-emetic activity | anti-emetic activity against cyclophosphamide [2]: exhibited anti-emetic activity | anti-emetic activity against morphine [3]: exhibited anti-emetic activity | anti-emetic activity against ipecacuanha [4]: exhibited anti-emetic activity | anti-emetic activity against copper sulphate [5]: exhibited anti-emetic activity

fold less active as an NK1 receptor antagonist than the (2S,3S) enantiomer [6]: 1000 fold
Compound: COc1ccccc1CN[C@H]1CCCN[C@H]1c1ccccc1 (relative stereo) [(2R,3R) enantiomer, cis-3-(2-methoxybenzylamino)-2-phenyl piperidine]
anti-emetic activity: inhibition of cisplatin-induced emesis ([1]; 3 mg/kg): inactive
